Experimental data: ChEMBL document CHEMBL1268927, “Antitumor activity of 3,4-dihydroquinazoline dihydrochloride in A549 xenograft nude mice” (Bioorg Med Chem Lett, 2010)

Tests used:
[1] = Cytotoxicity against human A172 cells by MTT assay; type: functional, cell-based, A 172
[2] = test system: HeLa; experiment: Cytotoxicity against human HeLa cells by MTT assay; type: functional, cell-based
[3] = test system: A549; experiment: Cytotoxicity against human A549 cells by MTT assay; type: functional, cell-based
[4] = test system: SK-OV-3; experiment: Cytotoxicity against human SKOV3 cells by MTT assay; type: functional, cell-based
[5] = test system: MDA-MB-231; experiment: Cytotoxicity against human MDA-MB-231 cells by MTT assay; type: functional, cell-based
[6] = test system: LNCaP; experiment: Cytotoxicity against human LNCAP cells by MTT assay; type: functional, cell-based
[7] = test system: SK-BR-3; experiment: Cytotoxicity against human SKBR3 cells by MTT assay; type: functional, cell-based
[8] = test system: A549; experiment: Antitumor activity against human A549 cells xenografted in BALB/c mouse assessed as inhibition of tumor weight at 2 mg/kg, iv administered once per 2 days for 4 weeks measured post last dose; type: functional
[9] = test system: Mus musculus; experiment: Toxicity in ICR mouse assessed as appearance of solid perineal region at 500 mg/kg, po administered as single dose; type: organism-based; parameters: dose 500 mg/kg, route oral; conditions: in vivo
[10] = test system: Mus musculus; experiment: Toxicity in ICR mouse assessed as occurrence of erosion at 45 mg/kg, iv administered as single dose measured up to 10 mins; type: organism-based; parameters: dose 45 mg/kg, route intravenous; conditions: in vivo
[11] = Toxicity in ICR mouse assessed as mortality rate at 26.6 mg/kg, iv administered as single dose; type: organism-based; parameters: dose 26.6 mg/kg, route intravenous; conditions: in vivo, read-out: Activity
[12] = test system: Rattus norvegicus; experiment: Half life in Sprague-Dawley rat at 10 mg/kg, iv; type: ADME, organism-based; parameters: dose 10 mg/kg, route intravenous; conditions: in vivo
[13] = test system: Mus musculus; experiment: Toxicity in ICR mouse assessed as occurrence of diarrhea at 100 mg/kg, po administered as single dose; type: organism-based; parameters: dose 100 mg/kg, route oral; conditions: in vivo
[14] = test system: Mus musculus; experiment: Toxicity in BALB/c mouse xenografted with human A549 cells assessed as effect on body weight at 1 to 2 mg/kg, iv QD for 28 days measured post last dose; type: organism-based; parameters: dose 1-2 mg/kg, route intravenous; conditions: in vivo, 672 h
[15] = Mean residence time in Sprague-Dawley rat at 10 mg/kg, iv; type: ADME, organism-based; parameters: dose 10 mg/kg, route intravenous; conditions: in vivo
[16] = Toxicity in ICR mouse assessed as mortality rate at 250 mg/kg, po administered as single dose; type: organism-based; parameters: dose 250 mg/kg, route oral; conditions: in vivo, read-out: Activity
[17] = test system: Mus musculus; experiment: Toxicity in ICR mouse assessed as appearance of clinical signs at 250 mg/kg, po administered as single dose; type: organism-based; parameters: dose 250 mg/kg, route oral; conditions: in vivo
[18] = test system: Mus musculus; experiment: Toxicity in ICR mouse assessed as occurrence of inanimation at 45 mg/kg, iv administered as single dose measured up to 10 mins; type: organism-based; parameters: dose 45 mg/kg, route intravenous; conditions: in vivo
[19] = test system: Mus musculus; experiment: Toxicity in ICR mouse assessed as occurrence of erosion at 34.6 mg/kg, iv administered as single dose; type: organism-based; parameters: dose 34.6 mg/kg, route intravenous; conditions: in vivo
[20] = test system: A549; experiment: Antitumor activity against human A549 cells xenografted in BALB/c mouse assessed as inhibition of tumor weight at 2 mg/kg, iv QD for 28 days measured post last dose; type: functional; conditions: A549, 672 h
[21] = Mean residence time in Sprague-Dawley rat at 5 mg/kg, iv; type: ADME, organism-based; parameters: dose 5 mg/kg, route intravenous; conditions: in vivo
[22] = test system: Mus musculus; experiment: Toxicity in ICR mouse assessed as loss of locomotor activity at 45 mg/kg, iv administered as single dose measured up to 10 mins; type: organism-based; parameters: dose 45 mg/kg, route intravenous; conditions: in vivo
[23] = Oral bioavailability in Sprague-Dawley rat at 5 mg/kg; type: ADME, organism-based; conditions: in vivo
[24] = test system: A549; experiment: Ratio of compound to doxorubicin activity against human A549 cells xenografted in BALB/c mouse at 2 mg/kg, iv; type: functional
[25] = test system: Mus musculus; experiment: Toxicity in ICR mouse assessed as occurrence of diarrhea at 500 mg/kg, po administered as single dose; type: organism-based; parameters: dose 500 mg/kg, route oral; conditions: in vivo
[26] = test system: Mus musculus; experiment: Toxicity in ICR mouse assessed as appearance of solid perineal region at 1000 mg/kg, po administered as single dose; type: organism-based; parameters: dose 1000 mg/kg, route oral; conditions: in vivo
[27] = test system: Mus musculus; experiment: Toxicity in ICR mouse assessed as occurrence of panting at 34.6 mg/kg, iv administered as single dose; type: organism-based; parameters: dose 34.6 mg/kg, route intravenous; conditions: in vivo
[28] = AUC in Sprague-Dawley rat at 10 mg/kg, iv; type: ADME, organism-based; parameters: dose 10 mg/kg, route intravenous; conditions: plasma
[29] = AUC in Sprague-Dawley rat at 5 mg/kg, iv; type: ADME, organism-based; parameters: dose 5 mg/kg, route intravenous; conditions: plasma
[30] = Oral bioavailability in Sprague-Dawley rat at 10 mg/kg; type: ADME, organism-based; conditions: in vivo
[31] = test system: Mus musculus; experiment: Toxicity in ICR mouse assessed as loss of locomotor activity at 34.6 mg/kg, iv administered as single dose; type: organism-based; parameters: dose 34.6 mg/kg, route intravenous; conditions: in vivo
[32] = test system: Rattus norvegicus; experiment: Volume of distribution in Sprague-Dawley rat at 10 mg/kg, iv; type: ADME, organism-based; parameters: dose 10 mg/kg, route intravenous; conditions: in vivo
[33] = test system: Rattus norvegicus; experiment: Volume of distribution in Sprague-Dawley rat at 5 mg/kg, iv; type: ADME, organism-based; parameters: dose 5 mg/kg, route intravenous; conditions: in vivo
[34] = Toxicity in iv dosed ICR mouse administered as single dose; type: organism-based; conditions: in vivo
[35] = test system: A549; experiment: Antitumor activity against human A549 cells xenografted in BALB/c mouse assessed as inhibition of tumor weight at 1 mg/kg, iv QD for 28 days measured post last dose; type: functional; conditions: A549, 672 h
[36] = test system: Mus musculus; experiment: Toxicity in ICR mouse assessed as appearance of clinical signs at 26.6 mg/kg, iv administered as single dose; type: organism-based; parameters: dose 26.6 mg/kg, route intravenous; conditions: in vivo
[37] = test system: Mus musculus; experiment: Toxicity in ICR mouse assessed as occurrence of inanimation at 34.6 mg/kg, iv administered as single dose; type: organism-based; parameters: dose 34.6 mg/kg, route intravenous; conditions: in vivo
[38] = Toxicity in ICR mouse assessed as mortality rate at 1000 mg/kg, po administered as single dose; type: organism-based; parameters: dose 1000 mg/kg, route oral; conditions: in vivo, read-out: Activity
[39] = test system: Rattus norvegicus; experiment: Half life in Sprague-Dawley rat at 5 mg/kg, iv; type: ADME, organism-based; parameters: dose 5 mg/kg, route intravenous; conditions: in vivo
[40] = test system: Mus musculus; experiment: Toxicity in BALB/c mouse xenografted with human A549 cells assessed as decrease in body weight at 2 mg/kg, iv administered once per 2 days for 4 weeks measured on day 8; type: organism-based; parameters: dose 2 mg/kg, route intravenous; conditions: in vivo
[41] = test system: Mus musculus; experiment: Toxicity in ICR mouse assessed as occurrence of panting at 45 mg/kg, iv administered as single dose measured up to 10 mins; type: organism-based; parameters: dose 45 mg/kg, route intravenous; conditions: in vivo
[42] = Toxicity in po dosed ICR mouse administered as single dose; type: organism-based; conditions: in vivo
[43] = Cmax in Sprague-Dawley rat at 5 mg/kg, iv; type: ADME, organism-based; parameters: dose 5 mg/kg, route intravenous; conditions: in vivo
[44] = Cmax in Sprague-Dawley rat at 10 mg/kg, iv; type: ADME, organism-based; parameters: dose 10 mg/kg, route intravenous; conditions: in vivo
[45] = Toxicity in ICR mouse assessed as mortality rate at 34.6 mg/kg, iv administered as single dose; type: organism-based; parameters: dose 34.6 mg/kg, route intravenous; conditions: in vivo, read-out: Activity
[46] = Toxicity in ICR mouse assessed as mortality rate at 500 mg/kg, po administered as single dose; type: organism-based; parameters: dose 500 mg/kg, route oral; conditions: in vivo, read-out: Activity
[47] = test system: A549; experiment: Antitumor activity against human A549 cells xenografted in iv dosed BALB/c mouse assessed as inhibition of tumor weight administered QD for 28 days measured post last dose; type: functional, organism-based

In the case of `CN(C)CCCCCN(C)C1=Nc2ccccc2C(CC(=O)NCc2ccccc2)N1c1ccc(-c2ccccc2)cc1` (centres undefined) [listing 1 of 2 here], the IC50 ([1]; Homo sapiens, A 172) is reported as 4.83 µM, the IC50 ([2]; Homo sapiens, HeLa) is reported as 4.04 µM and the IC50 ([3]; Homo sapiens, A549) is reported as 5.17 µM. It also gave an IC50 ([4]; Homo sapiens, SK-OV-3) of 5 µM, an IC50 ([5]; Homo sapiens, MDA-MB-231) of 2.65 µM and an IC50 ([6]; Homo sapiens, LNCaP) of 4.7 µM. For the same molecule, the IC50 ([7]; Homo sapiens, SK-BR-3) was 2.17 µM.

`COc1cccc2c1C(=O)c1c(O)c3c(c(O)c1C2=O)C[C@@](O)(C(=O)CO)C[C@@H]3O[C@H]1C[C@H](N)[C@H](O)[C@H](C)O1` [DOXORUBICIN] showed an inhibition in vivo at 2 mg/kg [8] of 30%.

With `CN(C)CCCCCN(C)C1=Nc2ccccc2C(CC(=O)NCc2ccccc2)N1c1ccc(-c2ccccc2)cc1.Cl.Cl` (centres undefined) the Activity [9] was “Toxic”, the Activity [10] was “Toxic” and the mortality [11] was 0%. It also gave an IC50 ([1]; a 172) of 4.61 µM, an IC50 ([2]; hela) of 3.11 µM and a t1/2 [12] of 19.8715 h. For the same molecule, the Activity [13] was “Toxic”, the Activity [14] was “Non-toxic” and the MRT [15] was 7.19 h. For the same molecule, the mortality [16] was 0%, the IC50 ([3]; a549) was 5 µM and the Activity [17] was “Non-toxic”. The Activity [18] was “Toxic”, the Activity [19] was “Toxic” and the inhibition in vivo at 2 mg/kg [20] was 49%. The MRT [21] was 5.09 h, the Activity [22] was “Toxic” and the bioavailability [23] was 98.3%. For the same molecule, the Ratio [24] was 1.6, the Activity [25] was “Toxic” and the Activity [26] was “Toxic”. For the same molecule, the IC50 ([4]; sk-ov-3) was 5.22 µM, the Activity [27] was “Toxic” and the AUC [28] was 279 µg·h/mL. For the same molecule, the AUC [29] was 128 µg·h/mL, the bioavailability [30] was 70.1% and the Activity [31] was “Toxic”. The IC50 ([5]; mda-mb-231) was 1.64 µM, the Vd [32] was 0.61 L/kg and the Vd [33] was 0.33 L/kg. The LD50 [34] was 40 mg/kg, the inhibition in vivo at 1 mg/kg [35] was 29% and the Activity [36] was “Toxic”. The Activity [37] was “Toxic”, the mortality [38] was 80% and the IC50 ([6]; lncap) was 5.19 µM. The t1/2 [39] was 8.716 h, the Activity [40] was “Toxic” and the IC50 ([7]; sk-br-3) was 1.83 µM. For the same molecule, the Activity [41] was “Toxic”, the LD50 [42] was 693 mg/kg and the Cmax [43] was 460 ng/mL. The Cmax [44] was 1030 ng/mL, the mortality [45] was 20% and the mortality [46] was 40%.

For `CN(C)CCCCCN(C)C1=Nc2ccccc2C(CC(=O)NCc2ccccc2)N1c1ccc(-c2ccccc2)cc1` (centres undefined) [listing 2 of 2 here], the inhibition [47] was “Dose-dependent effect”.
